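Step 1: Grow cells in 96-well plates. Step 2: Expose to compound for 48 hours at 5 concentrations. Step 3: Interpolate endpoints linearly; if unreached, use highest concentration. TGI is the concentration that stops growth completely.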

For seven molecules, TGI results are on record in PubChem BioAssay (NCI).

Test systems include KM12 colon; RPMI-8226 leukemia; NCI-H23 lung; SF-295 CNS; SN12C renal; MDA-MB-435; SNB-75 CNS; HL-60(TB) leukemia; UACC-257 melanoma; SF-268 CNS; HCC-2998 colon; M14 melanoma; SW-620 colon; TK-10 renal; EKVX NSCLC; HT29 colon; RXF 393 renal; NCI-H460 lung; SK-MEL-2 melanoma; SK-OV-3 ovarian.
Common to all, as to experiment: inhibition of tumour cell growth, NCI panel, 48 h

On to `CCOP(=O)(OCC)C(c1ccc(F)cc1)N(C(=O)NC(F)(F)F)c1ccc(OC)cc1` (stereo not drawn), for which the TGI with KM12 colon, in the assay on RPMI-8226 leukemia, in the assay with NCI-H23 lung, with SF-295 CNS, in the assay with SN12C renal and in the assay on MDA-MB-435 was > 100 µM in each case. Also, the TGI in the assay on SNB-75 CNS, with HL-60(TB) leukemia, in the assay on UACC-257 melanoma, in the assay with SF-268 CNS, in the assay with HCC-2998 colon and with M14 melanoma was > 100 µM throughout. Besides, the TGI in the assay on SW-620 colon, with TK-10 renal, in the assay with EKVX NSCLC, with HT29 colon, in the assay on RXF 393 renal and in the assay with NCI-H460 lung was > 100 µM throughout.
For the molecule `O=c1[nH]c(Nc2nc3ccccc3[nH]2)nc(O)c1-c1ccccc1`, the TGI with NCI-H23 lung, in the assay with SF-295 CNS, in the assay with SN12C renal, in the assay on MDA-MB-435, in the assay on SNB-75 CNS and in the assay with UACC-257 melanoma was > 100 µM throughout. Also, the TGI in the assay with SF-268 CNS, in the assay on HCC-2998 colon, with M14 melanoma, in the assay on SW-620 colon, in the assay on TK-10 renal and with HT29 colon was > 100 µM each time. Further, the TGI in the assay with RXF 393 renal, in the assay with SK-MEL-2 melanoma, with NCI-H460 lung and in the assay on SK-OV-3 ovarian was > 100 µM each time.
For `O=C1NCC2(CCN(CCCC3(c4ccc(F)cc4)OCCO3)CC2)N1c1ccccc1`, the TGI in the assay on KM12 colon, with RPMI-8226 leukemia, in the assay with NCI-H23 lung, in the assay with SF-295 CNS, with SN12C renal and in the assay with MDA-MB-435 was > 100 µM each time. Also, the TGI with SNB-75 CNS, with HL-60(TB) leukemia, in the assay on UACC-257 melanoma, in the assay with SF-268 CNS, in the assay on HCC-2998 colon and in the assay on M14 melanoma was > 100 µM each time. In addition, the TGI in the assay on SW-620 colon, in the assay with TK-10 renal, in the assay on EKVX NSCLC, in the assay with HT29 colon, in the assay on RXF 393 renal and in the assay with SK-MEL-2 melanoma was > 100 µM in each case. Also, the TGI in the assay on NCI-H460 lung was > 100 µM.
For `CCOC(=O)c1cn2c(nc1=O)N[C@H]1CCCC[C@@H]12`, the TGI in the assay with KM12 colon, in the assay with RPMI-8226 leukemia, in the assay with NCI-H23 lung, in the assay on SF-295 CNS, in the assay on SN12C renal and with MDA-MB-435 was > 100 µM throughout. Further, the TGI in the assay with SNB-75 CNS, in the assay with HL-60(TB) leukemia, in the assay with UACC-257 melanoma, in the assay on SF-268 CNS, in the assay with HCC-2998 colon and in the assay with M14 melanoma was > 100 µM each time. In addition, the TGI with SW-620 colon, in the assay with TK-10 renal, with EKVX NSCLC, with HT29 colon, with SK-MEL-2 melanoma and in the assay with NCI-H460 lung was > 100 µM each time. In the assay on SK-OV-3 ovarian, the TGI was > 100 µM.
Take `O=C1NCCN1/N=C/c1c(Cl)n(-c2ccccc2)c2ccccc12`: the TGI in the assay with KM12 colon was 34.2 µM; in the assay on RPMI-8226 leukemia, 52.8 µM; with NCI-H23 lung, 44.8 µM; in the assay on SF-295 CNS it was > 100 µM; in the assay with SN12C renal, 40.2 µM; in the assay with MDA-MB-435 it was 33.1 µM. Also, the TGI is 55 µM with SNB-75 CNS; > 100 µM with HL-60(TB) leukemia; 58.5 µM in the assay on UACC-257 melanoma; 59 µM with SF-268 CNS; 36.2 µM in the assay with HCC-2998 colon; 36.8 µM in the assay on M14 melanoma. Besides, the TGI in the assay with SW-620 colon was 53.4 µM; in the assay on TK-10 renal, 43.6 µM; in the assay with EKVX NSCLC, 91.5 µM; in the assay on HT29 colon it was 35.3 µM; in the assay on SK-MEL-2 melanoma, 66.4 µM; with SK-OV-3 ovarian it was > 100 µM.
For the molecule `CC1=NN(c2cccc(Cl)c2)C2(C1=C/C=C/c1ccccc1)C(Cl)C(=O)N2c1nc2ccccc2s1` (stereo not drawn), the TGI was > 67.5 µM in the assay with KM12 colon; 23.5 µM in the assay on RPMI-8226 leukemia; > 80.3 µM with NCI-H23 lung; > 100 µM in the assay with SF-295 CNS; > 100 µM in the assay on SN12C renal; > 58.4 µM in the assay on MDA-MB-435. The TGI in the assay with HL-60(TB) leukemia was > 68.3 µM; in the assay on UACC-257 melanoma it was > 100 µM; with SF-268 CNS, 56.1 µM; in the assay on HCC-2998 colon, 86.8 µM; with M14 melanoma it was > 91.2 µM; in the assay on SW-620 colon it was > 96.1 µM. For the same molecule, the TGI is > 100 µM in the assay with TK-10 renal; > 100 µM with EKVX NSCLC; > 100 µM with HT29 colon; > 49 µM in the assay on RXF 393 renal; 40.1 µM in the assay on SK-MEL-2 melanoma; > 100 µM in the assay with NCI-H460 lung. Besides, the TGI in the assay on SK-OV-3 ovarian is > 95.1 µM.
`N#CC12C(=O)N=C(N)C1(C#N)C(c1ccco1)NC1=C2CCCC1` (stereo not drawn): the TGI with KM12 colon, in the assay with RPMI-8226 leukemia, in the assay with NCI-H23 lung, in the assay with SF-295 CNS, in the assay with SN12C renal and in the assay on MDA-MB-435 was > 100 µM in each case. The TGI in the assay with HL-60(TB) leukemia, with UACC-257 melanoma, with SF-268 CNS, in the assay with HCC-2998 colon, with M14 melanoma and in the assay with SW-620 colon was > 100 µM each time. The TGI in the assay on TK-10 renal, with EKVX NSCLC, in the assay with HT29 colon, with RXF 393 renal, in the assay on SK-MEL-2 melanoma and with NCI-H460 lung was > 100 µM in each case. Besides, the TGI in the assay with SK-OV-3 ovarian is > 100 µM.
